≈ marks a conversion by molar mass, not a printed value.
What was measured:
[1] = tested on: Candida albicans ATCC 18804; assay: broth microdilution MIC/MFC; format: cell-based; settings: for MFC: ATCC18804, C. albicans ATCC 18804, read-out: MFC; for MIC: ATCC18804, C. albicans ATCC 18804, read-out: MIC
[2] = tested on: Candida albicans ATCC 10231; assay: broth microdilution MIC/MFC; format: cell-based; settings: for MFC: ATCC10231, C. albicans ATCC 10231, read-out: MFC; for MIC: ATCC10231, C. albicans ATCC 10231, read-out: MIC
[3] = tested on: Candida parapsilosis ATCC 22019; assay: broth microdilution MIC/MFC; format: cell-based; settings: Lodderomyces parapsilosis, ATCC22019, C. parapsilosis ATCC 22019; for MFC: read-out: MFC; for MIC: read-out: MIC
[4] = lipophilicity by RP-TLC with PCA; format: physicochemical; design: key to P1 / P2: PCA scores of compounds computed from Rf data; settings: for RM0: RP-TLC C18, water-i-propanol 45-65%, intercept, RM extrapolated to 0% organic modifier (lipophilicity); for b: RP-TLC regression slope (specific hydrophobic surface area); for P1: score of first principal component of Rf data, low P1 = highly lipophilic; for P2: score of second principal component of Rf data
Description: The lipophilic character of twenty thiazolin-4-one derivatives was assessed with the help of the principal component analysis (PCA) based on the reversed-phase thin-layer chromatography (RP-TLC) data.
The chromatographic behavior of the test compounds was studied on C18 silicagel bonded 60 RP-180F254S TLC (20 × 20 cm) plates, purchased from Merck (Darmstadt, Germany). The test compounds’ solutions (1 mg/mL) were prepared by dissolving the samples in DMSO (Merck, Darmstadt, Germany). The plates were manually spotted with 3 µL aliquots of each solution at 10 mm from the base and 5 mm from the edge of the plate, leaving a 10 mm distance between successive spots, and developed by the ascending technique, without preconditioning. Chromatography was performed in a normal developing chamber at room temperature (~24 °C), the developing distance being of 9 cm. The solvent system used as mobile phase consisted of a water-i-propanol mixture, with a varying content of organic modifier (i-propanol—concentration ranged between 45% and 65% (v/v), with 5% vol. increments). Before the development, the chamber was saturated with the mobile phase for 15 min. After being developed, the dried plates were visually inspected under the UV light (λ = 254 nm), each spot was clearly marked and its distance was manually measured in order to calculate the Rf values. The spots of the compounds 3f, 10 and 11 were not visible in UV light, thus their Rf values could not be calculated, therefore they were excluded from this assay.
Based on the Rf values, one of the most common lipophilic estimator, meaning the isocratic retention factor RM was calculated using the Bate-Smith and Westall equations [40].
RP-TLC provides retention data in the form of Rf and the corresponding RM values (Equation (2)) that can be used to derive chromatographic descriptors for estimating lipophilicity: RM0, b and PCA. The most popular lipophilicity descriptor estimated by this method is RM and it is derived from the retention factor (Rf) according to the following formula: RM = log[(1/Rf) − 1] (2) where Rf is calculated on the basis of migration distance of a compound and the solvent front.
As RM value (related to the molecular lipophilicity) depends linearly on the concentration of the organic modifier in the mobile phase, the value is extrapolated to pure water as mobile phase. In order to increase the accuracy of the lipophilicity determination, the RM values extrapolated to zero organic modifier concentration (RM0) have been calculated from the linear correlation between the RM values and the concentration of the organic component of the mobile phase: RM = RM0 + bc (3) where RM0 is the lipophilicity estimation parameter, RM is the retention of the solute, b is the slope, and c is the concentration of the mobile phase organic modifier (i-propanol).
The intercept (RM0) in Equation (3) represents the extrapolated RM values at 0% organic modifier.
PCA was performed on the obtained retention parameters with the help of XL-STAT extension. […] PCA gave the coordinates (scores) of the studied compounds and also the loadings of the variables (solvents) on the principal components.

[5] = tested on: Candida albicans ATCC 10231; assay: cup-plate agar diffusion method, inhibition zone diameters; format: cell-based; settings: ATCC10231, C. albicans ATCC 10231, 1 mg/mL in DMSO, 20 µg/well, mean of three ± SD, read-out: inhibition zone diameters
[6] = tested on: Candida krusei ATCC 6258; assay: broth microdilution MIC/MFC; format: cell-based; settings: Pichia kudriavzevii, ATCC6258, C. krusei ATCC 6258; for MFC: read-out: MFC; for MIC: read-out: MIC
[7] = tested on: four strains of Candida; assay: broth microdilution MIC/MFC, summary over the four strains; format: cell-based; settings: for fold more active than fluconazole: anti-Candida activity; for MFC / MIC: summary over two C. albicans, one C. krusei and one C. parapsilosis strain

| MIC [1] | MIC [2] | melting point | MIC [3] | RM0 [4] | b [4] | P1 [4] | P2 [4] | MIC [6] | Compound | MFC [1] | MFC [2] | MFC [3] | zone of inhibition at 1000 µg/mL [5] | MFC [6] | fold more active than fluconazole [7] | MFC [7] | MIC [7] |
| --- | --- | --- | --- | --- | --- | --- | --- | --- | --- | --- | --- | --- | --- | --- | --- | --- | --- |
| 1.95 µg/mL (≈ 5.99 µM) | 0.97 µg/mL (≈ 2.98 µM) | 347 °C | 0.97 µg/mL (≈ 2.98 µM) | 1.7388 | −3.3696 | 1.394 | −0.304 | 0.97 µg/mL (≈ 2.98 µM) | O=C1N=C(Nc2ccccc2)SC1=Cc1ccc([N+](=O)[O-])cc1 [Compound 6c, 5-(4-Nitrobenzylidene)-2-(phenylamino)thiazol-4(5H)-one] | 3.9 µg/mL (≈ 12 µM) | 1.95 µg/mL (≈ 5.99 µM) | 1.95 µg/mL (≈ 5.99 µM) | 20 ± 1 mm | 1.95 µg/mL (≈ 5.99 µM) | – | – | – |
| 7.81 µg/mL (≈ 21.5 µM) | 3.9 µg/mL (≈ 10.7 µM) | 287 to 289 °C | 3.9 µg/mL (≈ 10.7 µM) | 2.1996 | −3.8092 | −0.168 | −0.359 | 7.81 µg/mL (≈ 21.5 µM) | O=C1N=C(Nc2ccccc2)SC1=Cc1csc(-c2ccccc2)n1 [Compound 6d, 2-(Phenylamino)-5-((2-phenylthiazol-4-yl)methylene)thiazol-4(5H)-one] | 15.6 µg/mL (≈ 43 µM) | 7.81 µg/mL (≈ 21.5 µM) | 7.81 µg/mL (≈ 21.5 µM) | 20 ± 1 mm | 15.6 µg/mL (≈ 43 µM) | – | – | – |
| 0.97 µg/mL (≈ 2.53 µM) | 1.95 µg/mL (≈ 5.09 µM) | 356 °C | 0.48 µg/mL (≈ 1.25 µM) | 2.22 | −3.9066 | 0.079 | −0.443 | 0.97 µg/mL (≈ 2.53 µM) | O=C1N=C(Nc2ccccc2)SC1=Cc1coc2ccc(Cl)cc2c1=O [Compound 6e, 5-((6-Chloro-4-oxo-4H-chromen-3-yl)methylene)-2-(phenylamino)thiazol-4(5H)-one] | 3.9 µg/mL (≈ 10.2 µM) | 3.9 µg/mL (≈ 10.2 µM) | 0.97 µg/mL (≈ 2.53 µM) | 16 ± 1 mm | 3.9 µg/mL (≈ 10.2 µM) | – | – | – |
| 1.95 µg/mL (≈ 5.34 µM) | 3.9 µg/mL (≈ 10.7 µM) | 140 °C | 0.48 µg/mL (≈ 1.32 µM) | 2.5309 | −4.1292 | −1.227 | −0.239 | 0.48 µg/mL (≈ 1.32 µM) | O=C1N=C(Nc2cccc3ccccc23)SC1=Cc1cccc(Cl)c1 [Compound 9a, 5-(3-Chlorobenzylidene)-2-(naphthalen-1-ylamino)thiazol-4(5H)-one] | 7.81 µg/mL (≈ 21.4 µM) | 7.81 µg/mL (≈ 21.4 µM) | 0.97 µg/mL (≈ 2.66 µM) | 18 ± 1 mm | 0.97 µg/mL (≈ 2.66 µM) | – | – | – |
| 1.95 µg/mL (≈ 5.19 µM) | 1.95 µg/mL (≈ 5.19 µM) | 152 °C | 0.03 µg/mL (≈ 0.0799 µM) | 2.7789 | −4.1555 | −2.722 | 0.228 | 0.97 µg/mL (≈ 2.58 µM) | O=C1N=C(Nc2cccc3ccccc23)SC1=Cc1ccc([N+](=O)[O-])cc1 [Compound 9c, 2-(Naphthalen-1-ylamino)-5-(4-nitrobenzylidene)thiazol-4(5H)-one] | 3.9 µg/mL (≈ 10.4 µM) | 3.9 µg/mL (≈ 10.4 µM) | 0.06 µg/mL (≈ 0.16 µM) | 20 ± 0.5 mm | 1.95 µg/mL (≈ 5.19 µM) | – | – | – |
| 3.9 µg/mL (≈ 9.43 µM) | 7.81 µg/mL (≈ 18.9 µM) | 312 °C | 0.12 µg/mL (≈ 0.29 µM) | 3.287 | −4.6935 | −3.746 | 0.618 | 0.24 µg/mL (≈ 0.58 µM) | O=C1N=C(Nc2cccc3ccccc23)SC1=Cc1csc(-c2ccccc2)n1 [Compound 9d, 2-(Naphthalen-1-ylamino)-5-((2-phenylthiazol-4-yl)methylene)thiazol-4(5H)-one] | 3.9 µg/mL (≈ 9.43 µM) | 15.6 µg/mL (≈ 37.8 µM) | 0.24 µg/mL (≈ 0.58 µM) | 20 ± 1 mm | 0.48 µg/mL (≈ 1.16 µM) | – | – | – |
| 1.95 µg/mL (≈ 4.5 µM) | 7.81 µg/mL (≈ 18 µM) | 266 to 268 °C | 1.95 µg/mL (≈ 4.5 µM) | 2.3983 | −3.319 | −3.292 | 0.708 | 1.95 µg/mL (≈ 4.5 µM) | O=C1N=C(Nc2cccc3ccccc23)SC1=Cc1coc2ccc(Cl)cc2c1=O [Compound 9e, 5-((6-Chloro-4-oxo-4H-chromen-3-yl)methylene)-2-(naphthalen-1-ylamino)thiazol-4(5H)-one] | 3.9 µg/mL (≈ 9.01 µM) | 15.6 µg/mL (≈ 36.1 µM) | 3.9 µg/mL (≈ 9.01 µM) | 22 ± 0.5 mm | 3.9 µg/mL (≈ 9.01 µM) | – | – | – |
| 15.6 µg/mL (≈ 51 µM) | 15.6 µg/mL (≈ 51 µM) | – | 7.81 µg/mL (≈ 25.5 µM) | – | – | – | – | 15.6 µg/mL (≈ 51 µM) | OC(Cn1cncn1)(Cn1cncn1)c1ccc(F)cc1F [Fluconazole, reference compound] | 31.2 µg/mL (≈ 102 µM) | 31.2 µg/mL (≈ 102 µM) | 15.6 µg/mL (≈ 51 µM) | 22 ± 0.5 mm | 31.2 µg/mL (≈ 102 µM) | – | 15.6 to 31.2 µg/mL (≈ 51 to 102 µM) | 7.81 to 15.6 µg/mL (≈ 25.5 to 51 µM) |
| 7.81 µg/mL (≈ 14.7 µM) | 7.81 µg/mL (≈ 14.7 µM) | – | 3.9 µg/mL (≈ 7.34 µM) | – | – | – | – | 7.81 µg/mL (≈ 14.7 µM) | CC(=O)N1CCN(c2ccc(OCC3COC(Cn4ccnc4)(c4ccc(Cl)cc4Cl)O3)cc2)CC1 (stereo not shown) [Ketoconazole, reference compound] | 15.6 µg/mL (≈ 29.4 µM) | 15.6 µg/mL (≈ 29.4 µM) | 7.81 µg/mL (≈ 14.7 µM) | – | 15.6 µg/mL (≈ 29.4 µM) | – | 7.81 to 15.6 µg/mL (≈ 14.7 to 29.4 µM) | 3.9 to 7.81 µg/mL (≈ 7.34 to 14.7 µM) |

| Compound | MIC [1] | MIC [2] | melting point | MIC [3] | RM0 [4] | b [4] | P1 [4] | P2 [4] | MIC [6] | MFC [1] | MFC [2] | MFC [3] | zone of inhibition at 1000 µg/mL [5] | MFC [6] | fold more active than fluconazole [7] | MFC [7] | MIC [7] |
| --- | --- | --- | --- | --- | --- | --- | --- | --- | --- | --- | --- | --- | --- | --- | --- | --- | --- |
| O=C1N=C(Nc2cccc3ccccc23)SC1=Cc1ccc(Cl)cc1Cl [Compound 9b, 5-(2,4-Dichlorobenzylidene)-2-(naphthalen-1-ylamino)thiazol-4(5H)-one] | 0.015 µg/mL (≈ 0.0376 µM) | 0.015 µg/mL (≈ 0.0376 µM) | 185 °C | 0.015 µg/mL (≈ 0.0376 µM) | 2.9283 | −4.3675 | −2.876 | 0.232 | 0.015 µg/mL (≈ 0.0376 µM) | 0.03 µg/mL (≈ 0.0751 µM) | 0.03 µg/mL (≈ 0.0751 µM) | 0.015 µg/mL (≈ 0.0376 µM) | 18 ± 0.2 mm | 0.015 µg/mL (≈ 0.0376 µM) | over 500 fold | 0.015 µg/mL (≈ 0.0376 µM) | 0.015 µg/mL (≈ 0.0376 µM) |
| CNC1=NC(=O)CS1 [Compound 10, 2-(methylamino)thiazol-4(5H)-one] | 0.015 µg/mL (≈ 0.115 µM) | 0.015 µg/mL (≈ 0.115 µM) | – | 0.015 µg/mL (≈ 0.115 µM) | – | – | – | – | 0.015 µg/mL (≈ 0.115 µM) | 0.03 µg/mL (≈ 0.23 µM) | 0.03 µg/mL (≈ 0.23 µM) | 0.015 µg/mL (≈ 0.115 µM) | 22 ± 1 mm | 0.015 µg/mL (≈ 0.115 µM) | over 500 fold | 0.015 µg/mL (≈ 0.115 µM) | 0.015 µg/mL (≈ 0.115 µM) |
